# The source made the active and inactive calls. The calls are words filed in the database; no cut-off is given here.
# How the values were obtained:
# [1] = tested on: SK-HEP1; assay: Induction of cell cycle arrest in human SK-HEP1 cells assessed as decrease in accumulation of cells at G0/G1 phase incubated for 24 hrs by propidium iodide staining based flow cytometry analysis; format: functional; conditions: dose 1.5-13.5 µM
# [2] = tested on: Huh-7; assay: Induction of apoptosis in human Huh-7 cells assessed as increase in cytochrome-C expression at 0.9 to 8.1 uM incubated for 48 hrs by Western blotting analysis; format: functional, cell-based; conditions: dose 0.9-8.1 µM
# [3] = tested on: SK-HEP1; assay: Induction of apoptosis in human SK-HEP1 cells assessed as chromatin condensation at 1.5 to 13.5 uM incubated for 24 hrs by giemsa staining based micrscopic analysis; format: functional, cell-based; conditions: dose 1.5-13.5 µM
# [4] = tested on: Huh-7; assay: Inhibition of cell migration in human Huh-7 cells incubated for 24 hrs by scratch wound healing assay; format: functional, cell-based; conditions: dose 0.55-2.2 µM
# [5] = tested on: Huh-7; assay: Antiproliferative activity against human Huh-7 cells assessed as inhibition of cell growth upto 2 uM by MTT assay; format: functional, cell-based; conditions: time 72.0 hrs, TDE = time-dependent effect
# [6] = tested on: SK-HEP1; assay: Induction of apoptosis in human SK-HEP1 cells assessed as increase in cleaved caspase-3 expression at 1.5 to 13.5 uM incubated for 48 hrs by Western blotting analysis; format: functional, cell-based; conditions: dose 1.5-13.5 µM
# [7] = tested on: SK-HEP1; assay: Inhibition of cell migration in human SK-HEP1 cells at 1.25 to 5 uM incubated for 24 hrs by crystal violet staining based transwell migration assay; format: functional; conditions: dose 1.25-5 µM
# [8] = Acute toxicity in BALB/c mouse assessed as change in body weight at 650 mg/kg, ip measured after 14 days; format: organism-based; conditions: in vivo, 336 h, time 14 day
# [9] = tested on: SK-HEP1; assay: Induction of apoptosis in human SK-HEP1 cells assessed as genomic DNA fragmentation at 1.5 to 13.5 uM incubated for 24 hrs by giemsa staining based micrscopic analysis; format: functional, cell-based; conditions: dose 1.5-13.5 µM
# [10] = tested on: SK-HEP1; assay: Induction of apoptosis in human SK-HEP1 cells assessed as increase in proportion of late apoptosis at 1.5 to 13.5 uM incubated for 24 hrs by Annexin V-AbFluor 488/propidium iodide staining based flow cytometry analysis; format: functional, cell-based; conditions: dose 1.5-13.5 µM
# [11] = tested on: Huh-7; assay: Induction of apoptosis in human Huh-7 cells assessed as cell shrinkage at 0.9 to 8.1 uM incubated for 24 hrs by giemsa staining based micrscopic analysis; format: functional; conditions: dose 0.9-8.1 µM
# [12] = tested on: SK-HEP1; assay: Inhibition of PI3K signalling pathway in human SK-HEP1 cells assessed as inhibition of PI3K phosphorylation at 1.5 to 13.5 uM measured after 48 hrs by Western blotting analysis; format: cell-based; conditions: dose 1.5-13.5 µM
# [13] = Acute toxicity in BALB/c mouse assessed as mouse survival at 650 mg/kg, ip measured after 14 days; format: organism-based; conditions: in vivo, 336 h, time 14 day
# [14] = tested on: Huh-7; assay: Antitumor activity against human Huh-7 cells xenografted in ip dosed BALB/c mouse assessed as reduction in tumor weight measured after 14 days; format: functional, organism-based; conditions: dose 15-30 mg/kg, time 14.0 day
# [15] = tested on: Huh-7; assay: Induction of apoptosis in human Huh-7 cells assessed as increase in cleaved caspase-9 expression at 0.9 to 8.1 uM incubated for 48 hrs by Western blotting analysis; format: functional, cell-based; conditions: dose 0.9-8.1 µM
# [16] = tested on: Huh-7; assay: Induction of apoptosis in human Huh-7 cells assessed as cell membrane blebbing at 0.9 to 8.1 uM incubated for 24 hrs by giemsa staining based micrscopic analysis; format: functional; conditions: dose 0.9-8.1 µM
# [17] = tested on: Huh-7; assay: Induction of apoptosis in human Huh-7 cells assessed as genomic DNA fragmentation at 0.9 to 8.1 uM incubated for 24 hrs by giemsa staining based micrscopic analysis; format: functional, cell-based; conditions: dose 0.9-8.1 µM
# [18] = tested on: Huh-7; assay: Inhibition of colony formation in human Huh-7 cells assessed as reduction in number of cell colonies at 0.55 to 2.2 uM measured after 10 and 14 days by crystal violet staining based light microscopic analysis; format: functional; conditions: dose 0.55-2.2 µM, time 14.0 day
# [19] = tested on: SK-HEP1; assay: Antiproliferative activity against human SK-HEP1 cells assessed as reduction in ratio of EdU-positive cells measured after 24 hrs by EdU incorporation assay; format: functional, cell-based; conditions: dose 1.25-5 µM
# [20] = tested on: SK-HEP1; assay: Inhibition of cell migration in human SK-HEP1 cells incubated for 24 hrs by scratch wound healing assay; format: functional, cell-based; conditions: dose 1.25-5 µM
# [21] = tested on: Huh-7; assay: Induction of cell cycle arrest in human Huh-7 cells assessed as decrease in cyclin A expression incubated for 48 hrs by Western blotting analysis; format: functional, cell-based; conditions: dose 0.9-8.1 µM
# [22] = tested on: SK-HEP1; assay: Antiinvasive activity in human SK-HEP1 cells assessed as reduction in number of invasive cells at 1.25 to 5 uM incubated for 24 hrs by transwell invasion assay; format: functional, cell-based; conditions: dose 1.25-5 µM
# [23] = tested on: SK-HEP1; assay: Induction of apoptosis in human SK-HEP1 cells assessed as inhibition of Bcl-2 expression incubated for 48 hrs by Western blotting analysis; format: functional, cell-based; conditions: dose 1.5-13.5 µM
# [24] = tested on: SK-HEP1; assay: Induction of apoptosis in human SK-HEP1 cells assessed as inhibition of caspase-9 expression incubated for 48 hrs by Western blotting analysis; format: functional, cell-based; conditions: dose 1.5-13.5 µM
# [25] = tested on: SK-HEP1; assay: Antiproliferative activity against human SK-HEP1 cells assessed as inhibition of cell growth upto 2 uM by MTT assay; format: functional, cell-based; conditions: time 72.0 hrs, TDE = time-dependent effect
# [26] = tested on: Huh-7; assay: Inhibition of PI3K signalling pathway in human Huh-7 cells assessed as inhibition of PI3K phosphorylation at 0.9 to 8.1 uM measured after 48 hrs by Western blotting analysis; format: cell-based; conditions: dose 0.9-8.1 µM
# [27] = tested on: Huh-7; assay: Induction of apoptosis in human Huh-7 cells assessed as formation of apoptotic bodies at 0.9 to 8.1 uM incubated for 24 hrs by giemsa staining based micrscopic analysis; format: functional, cell-based; conditions: dose 0.9-8.1 µM
# [28] = tested on: Huh-7; assay: Antitumor activity against human Huh-7 cells xenografted in BALB/c mouse assessed as reduction in tumor volume at 15 to 30 mg/kg, ip qd; format: functional, organism-based; conditions: dose 15-30 mg/kg, time 14.0 day, TDE = time-dependent effect
# [29] = tested on: Huh-7; assay: Antimigratory activity against human Huh-7 cells assessed as up-regulation of E-cadherin expression at 0.55 to 2.2 uM incubated 24 hrs by Western blotting analysis; format: functional, cell-based; conditions: dose 0.55-2.2 µM
# [30] = tested on: Huh-7; assay: Induction of cell cycle arrest in human Huh-7 cells assessed as increase in accumulation of cells at G2/M phase incubated for 24 hrs by propidium iodide staining based flow cytometry analysis; format: functional; conditions: dose 0.9-8.1 µM
# [31] = tested on: HCCLM9; assay: Antiproliferative activity against human HCCLM9 cells assessed as inhibition of cell growth measured after 72 hrs by MTT assay; format: functional, cell-based; conditions: HCCLM9, 72 h
# [32] = Toxicity in BALB/c mouse xenografted with human Huh-7 cells assessed as change in body weight at 15 to 30 mg/kg, ip qd measured after 14 days; format: organism-based; conditions: in vivo, 336 h, dose 15-30 mg/kg, time 14 day
# [33] = tested on: Huh-7; assay: Antitumor activity against human Huh-7 cells xenografted in BALB/c mouse assessed as tumor growth inhibition at 30 mg/kg, ip qd measured after 14 days; format: functional; conditions: Huh-7, 336 h, time 14 day, read-out: TGI
# [34] = tested on: Huh-7; assay: Inhibition of cell migration in human Huh-7 cells at 0.55 to 2.2 uM incubated for 24 hrs by crystal violet staining based transwell migration assay; format: functional; conditions: dose 0.55-2.2 µM
# [35] = tested on: SK-HEP1; assay: Induction of apoptosis in human SK-HEP1 cells assessed as formation of apoptotic bodies at 1.5 to 13.5 uM incubated for 24 hrs by giemsa staining based micrscopic analysis; format: functional, cell-based; conditions: dose 1.5-13.5 µM
# [36] = tested on: SK-HEP1; assay: Induction of cell cycle arrest in human SK-HEP1 cells assessed as decrease in cyclin A expression incubated for 48 hrs by Western blotting analysis; format: functional, cell-based; conditions: dose 1.5-13.5 µM
compound,measurement,setting,value
CC(=O)Oc1ccccc1/C=C/c1nccc2ccccc12,Activity,[1],Dose-Dependent Effect
same,Activity,[2],Active
same,Activity,[3],Active
same,inhibition,[4],Dose-Dependent Effect
same,Activity,[5],Tde
same,Activity,[6],Active
same,inhibition,[7],Active
same,Activity,[8],Non-Toxic
same,Activity,[9],Active
same,Activity,[10],Active
same,Activity,[11],Active
same,inhibition,[12],Active
same,Activity,[13],Non-Toxic
same,Activity,[14],Dose-Dependent Effect
same,Activity,[15],Active
same,Activity,[16],Active
same,Activity,[17],Active
same,inhibition,[18],Active
same,Activity,[19],Dose-Dependent Effect
same,inhibition,[20],Dose-Dependent Effect
same,Activity,[21],Dose-Dependent Effect
same,Activity,[22],Active
same,Activity,[23],Dose-Dependent Effect
same,Activity,[24],Dose-Dependent Effect
same,Activity,[25],Tde
same,inhibition,[26],Active
same,Activity,[27],Active
same,Activity,[28],Tde
same,Activity,[29],Active
same,Activity,[30],Dose-Dependent Effect
same,IC50,[31],6.14 µM
same,Activity,[32],Non-Toxic
same,inhibition in vivo at 30 mg/kg,[33],41.4%
same,inhibition,[34],Active
same,Activity,[35],Active
same,Activity,[36],Dose-Dependent Effect

# — ChEMBL document CHEMBL5370544, “Design, synthesis, and biological evaluation of 1-styrenyl isoquinoline derivatives for anti-hepatocellular carcinoma activity and effect on mitochondria” (Eur J Med Chem, 2023)
